Source: patent US20240190851A1, “FURAN FUSED RING-SUBSTITUTED GLUTARIMIDE COMPOUND” (MEDSHINE DISCOVERY INC., priority 2021, published 2024)
Counter-ions that a name gives are not always drawn. Each block holds one molecule with its values, some of them ahead of it.

Assays:
[1] = system: human prostate cancer LNCaP xenograft tumor; test: In vivo pharmacodynamic study, LNCaP subcutaneous xenograft tumor CB-17 SCID model; design: species or system CB-17 SCID mice; details: Enzalutamide 20 mg/kg p.o. QD
Description: Human prostate cancer LNCaP cells (ECACC-89110211) were cultured in vitro in a monolayer under the culture conditions of RPMI-1640 medium with 10% fetal bovine serum, […], and 100 μg/mL streptomycin, and cultured in a 37° C., 5% CO2 incubator.
Routine digestion with trypsin-EDTA was performed twice a week for passaging. When the cell saturation density was 80% to 90% and the number of cells reached the required level, the cells were collected, counted, and inoculated.
CB-17 SCID mice, 6 to 8 weeks old, male, weighing 18 to 22 g.
0.2 mL (1×10^7) of LNCaP cells (with matrix gel, volume ratio of 1:1) were subcutaneously inoculated on the right back of each mouse. The mice were subjected to surgical castration when the average tumor volume reached approximately 80 mm^3, and grouping and administration were initiated when the average tumor volume reached 166 mm^3.
Tumor diameters were measured twice a week with a vernier caliper. The formula for calculating tumor volume was: V=0.5a×b^2, wherein a and b represented the long and short diameters of the tumor, respectively.
The antitumor efficacy of compounds was evaluated by TGI (%). TGI (%) reflected the tumor growth inhibition rate. TGI (0%)=[(1−(average tumor volume at the end of administration in a treatment group−average tumor volume at the beginning of administration in this treatment group))/(average tumor volume at the end of treatment in the vehicle control group−average tumor volume at the beginning of treatment in the vehicle control group)]×100%.

androgen receptor AR = molecular target: T1, androgen receptor AR (Homo sapiens, UniProt P10275, T878A); test: AR degradation in LNCaP cells by ICW method; format: cell-based; details: 24 hours
T1 construct: degradation effect of compounds on androgen receptor AR in LNCaP cells; endogenous in cells; host or cells: LNCaP
T1 sequence (P10275 1-920 T878A): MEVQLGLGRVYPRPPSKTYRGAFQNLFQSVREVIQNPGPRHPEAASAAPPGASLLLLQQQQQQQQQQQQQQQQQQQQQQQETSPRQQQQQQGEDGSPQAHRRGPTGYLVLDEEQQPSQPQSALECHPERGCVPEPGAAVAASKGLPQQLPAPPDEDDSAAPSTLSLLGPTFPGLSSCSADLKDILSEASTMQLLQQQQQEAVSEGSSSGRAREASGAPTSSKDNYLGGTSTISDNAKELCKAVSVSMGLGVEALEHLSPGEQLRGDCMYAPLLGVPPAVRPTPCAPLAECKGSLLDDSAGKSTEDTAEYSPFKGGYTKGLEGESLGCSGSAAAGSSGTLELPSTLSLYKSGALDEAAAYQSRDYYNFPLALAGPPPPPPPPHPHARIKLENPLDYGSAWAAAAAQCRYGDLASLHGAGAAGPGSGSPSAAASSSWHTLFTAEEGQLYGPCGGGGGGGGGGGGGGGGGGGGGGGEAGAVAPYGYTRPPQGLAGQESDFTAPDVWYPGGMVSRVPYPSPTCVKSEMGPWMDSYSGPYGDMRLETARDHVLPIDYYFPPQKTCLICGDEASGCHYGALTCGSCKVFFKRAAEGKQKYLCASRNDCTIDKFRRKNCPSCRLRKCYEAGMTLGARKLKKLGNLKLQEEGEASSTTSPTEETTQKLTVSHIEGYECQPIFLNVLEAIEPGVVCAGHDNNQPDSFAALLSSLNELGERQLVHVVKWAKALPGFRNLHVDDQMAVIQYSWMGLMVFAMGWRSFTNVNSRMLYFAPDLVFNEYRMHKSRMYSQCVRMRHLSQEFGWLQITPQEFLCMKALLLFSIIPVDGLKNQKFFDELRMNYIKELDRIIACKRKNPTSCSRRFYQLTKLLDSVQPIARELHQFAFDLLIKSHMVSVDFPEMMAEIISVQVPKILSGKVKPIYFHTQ
Description: Experimental purpose: To test the degradation effect of compounds on androgen receptor AR in LNCaP cells by ICW method.
Day 1 • 1. The cell culture medium, 0.025% trypsin, and phosphate buffered saline were preheated in a 37° C. water bath. • 2. Cells digested by trypsin were centrifuged at 1000 rpm for 5 minutes. The supernatant was discarded, and then the cells were resuspended in fresh culture medium. • 3. The cells were inoculated in a COL-Coated CellCarrier-384 plate at a density of 4 k/[…]/well. • 4. The 384 cell plate inoculated with cells was placed in an ultra-clean bench for 10 minutes. • 5. The cell plate was cultured overnight in a CO2 cell incubator.
Day 2 • 1. The compound at a concentration of 10 mM was diluted to 3 mM (3 μL+7 μL of dimethyl sulfoxide) before serial dilution. • 2. The compound was serially diluted 3-fold (4 μL+8 μL) in an Echo plate using Bravo. • 3. ZPE and HPE control wells were setup, and the ZPE control wells were dimethyl sulfoxide. • 4. The Echo plate was centrifuged at 1000 rpm for 1 minute, and then the diluted compound was transferred from the Echo plate to an intermediate plate using Echo with 200 nL/well. • 5. To the intermediate plate was added the cell culture medium using Multidrop combi with […]. • 6. The intermediate plate was shaken on a horizontal shaker for 1 minute to mix the compound well with the culture medium. • 7. The compound was transferred from the intermediate dilution plate to the cell plate using Bravo with 4 μL/well. • 8. The cell plate was shaken on the horizontal shaker for 1 minute, and centrifuged at 800 rpm for 30 seconds. • 9. The cell plate was returned to the CO2 incubator, and cultured for another 24 hours.
Day 3 • 1. 4% paraformaldehyde was removed from the refrigerator and brought to room temperature. • 2. The cell plate was removed from the incubator. • 3. To the cell plate was directly added 4% paraformaldehyde with 40 μL/well. • 4. The plate was incubated at room temperature for 20 minutes. • 5. The culture medium was manually shaken off from the cell plate, inverted in a centrifuge, and centrifuged at 800 rpm for 7 seconds to fully remove the residual culture medium. • 6. To the cell plate was added 4% paraformaldehyde with 25 μL/well. • 7. The plate was incubated at room temperature for 30 minutes. • 8. The paraformaldehyde solution was manually shaken off from the cell plate, inverted in the centrifuge, and centrifuged at 800 rpm for 7 seconds. • 9. 0.1% Trition was added with 25 μL/well. • 10. The plate was incubated at room temperature for 10 minutes. • 11. The 0.1% Trition solution was manually shaken off from the cell plate, inverted in the centrifuge, and centrifuged at 800 rpm for 7 seconds. • 12. Intercept® (PBS) blocking buffer was added with 25 μL/well. • 13. The plate was incubated at room temperature for 1 hour. • 14. The Intercept® (PBS) blocking buffer solution was manually shaken off from the cell plate, inverted in the centrifuge, and centrifuged at 800 rpm for 7 seconds. • 15. Primary antibody solution was added with 20 μL/well. The cell plate was placed in the centrifuge, and centrifuged at 800 rpm for 7 seconds. • 16. The cell plate was sealed, and then incubated overnight at 4° C.
Day 4 • 1. The primary antibody solution was manually shaken off from the cell plate, inverted in the centrifuge, and centrifuged at 800 rpm for 7 seconds. • 2. The plate was washed three times with 110 μL of PBS. • 3. The cell plate was inverted in the centrifuge, and centrifuged at 800 rpm for 7 seconds. • 4. Secondary antibody and DAPI solution was added with 20 μL/well. The cell plate was placed in the centrifuge, and centrifuged at 800 rpm for 7 seconds. • 5. The plate was incubated at room temperature for 1 hour. • 6. The secondary antibody and DAPI solution was manually shaken off from the cell plate, inverted in the centrifuge, and centrifuged at 800 rpm for 7 seconds. • 7. […]

[2] = system: human prostate cancer LNCaP cells; test: Antiproliferative effect in LNCaP cells (CellTiter-Glo, 6 days); format: cell-based; details: 144 h
Description: In this experiment, the inhibitory effect of the test compound on cell proliferation in human prostate cancer LNCaP cells was detected.
The tumor cell lines were cultured in a 37° C., 5% CO2 incubator under the above culture conditions. Regular passage, and cells in logarithmic growth phase were taken for plating.
2. Cell Plating • (1) Cells were stained with trypan blue and viable cells were counted; • (2) the cell concentration was adjusted to an appropriate concentration;
• (3) 90 μL of cell suspension per well was added to the culture plate as shown in the table above, and cell-free culture medium was added to the blank control well; • (4) the culture plate was cultured overnight in a 37° C., 5% CO2 incubator with 100% relative humidity.
Preparation of stock solution storage plate with 400 times the initial concentration of the compound: The compound was serially diluted with DMSO from the highest concentration to the lowest concentration. The solution was prepared as needed each time.
Preparation of Working Solution with 10 Times the Initial Concentration of Compounds and Cell Treatment with Compounds • (1) To a V-bottom 96-well plate was added 78 μL of cell culture medium, and 2 μL of compound was pipetted from a stock solution storage plate with 400 times the initial concentration of the compound and added to the cell culture medium of the 96-well plate. To vehicle control and blank control was added 2 μL of DMSO. After the compound or DMSO was added, blowing with a pipette and mixing well were carried out. • (2) Administration: 10 μL of a working solution with 10 times the initial concentration of the compound was added to the cell culture plate. To vehicle control and blank control was added 10 μL of DMSO-cell culture medium mixture. • (3) The 96-well plate was returned to the incubator and cultured for 6 days.
The following steps were performed according to the instructions of Promega CellTiter-Glo luminescent cell viability assay kit (Promega-G7573). • (1) CellTiter-Glo buffer was melted and brought to room temperature; • (2) CellTiter-Glo substrate was brought to room temperature; • (3) CellTiter-Glo working solution was prepared by adding 100 mL of CellTiter-Glo buffer to a vial of CellTiter-Glo substrate to dissolve the substrate; • (4) the mixture was slowly vortexed and shaken to be fully dissolved; • (5) the cell culture plate was taken out and left for 30 minutes to equilibrate to room temperature; • (6) 50 μL of CellTiter-Glo working solution was added per well (equal to half the volume of cell culture medium per well). The cell plate was wrapped in aluminum foil to be protected from light; • (7) the culture plate was shaken on an orbital shaker for 2 minutes to induce cell lysis; (8) the culture plate was left at room temperature for 10 minutes to stabilize the luminescent signal; • (9) the luminescent signal was detected on a 2104 EnVision plate reader.
The inhibition rate (IR) of the test compound was calculated using the following formula: IR (%)=(RLU vehicle control−RLU compound)/(RLU vehicle control−RLU blank control)×100%. The inhibition rates of compounds at different concentrations were calculated in Excel, and then GraphPad Prism software was used to plot inhibition curves and calculate relevant parameters, including minimum inhibition rate, maximum inhibition rate, and ICSO.

SMILES: CNC(=O)c1ccc(N2C(=S)N(c3ccc(C#N)c(C(F)(F)F)c3)C(=O)C2(C)C)cc1F [Enzalutamide, reference compound]
Tumor volume (Day 0) ([1]; Day 0, start of administration): 166 ± 18 mm^3 | TGI (Day 21) ([1]; Day 21): 101.9% | Tumor volume (Day 21) ([1]; Day 21): 157 ± 37 mm^3

DC50 (androgen receptor AR): 0.0224 µM | Dmax (androgen receptor AR): 76.2%
SMILES: N#Cc1ccc(O[C@H]2CC[C@H](NC(=O)c3ccc(N4CCC(CN5CCN(c6ccc7c(ccc8occ(C9CCC(=O)NC9=O)c87)c6)CC5)CC4)nn3)CC2)cc1Cl (some centres unmarked) [Hydrochloride of WX014]

SMILES: CC1(C)C(=O)N(c2ccc(C#N)c(C(F)(F)F)c2)C(=S)N1c1ccc(OCCN2CCN(CC(=O)Nc3ccc4occ(C5CCC(=O)NC5=O)c4c3)CC2)c(F)c1 (centres unmarked) [WX001]
IC50 [2]: 0.333 µM

SMILES: CC1(C)C(=O)N(c2ccc(C#N)c(C(F)(F)F)c2)C(=S)N1c1ccc(OCCN2CCN(CC(=O)Nc3ccc4c(ccc5occ(C6CCC(=O)NC6=O)c54)c3)CC2)c(F)c1 (centres unmarked) [WX003]
IC50 [2]: 0.23 µM

SMILES: CC1(C)C(=O)N(c2ccc(C#N)c(C(F)(F)F)c2)C(=S)N1c1ccc(OCCN2CCN(CCCc3ccc4c(C5CCC(=O)NC5=O)coc4c3)CC2)c(F)c1 (centres unmarked) [WX004]
IC50 [2]: 0.025 µM

SMILES: CC1(C)C(=O)N(c2ccc(C#N)c(C(F)(F)F)c2)C(=S)N1c1ccc(OCCN2CCN(C3(C(=O)Nc4ccc5occ(C6CCC(=O)NC6=O)c5c4)CC3)CC2)c(F)c1 (centres unmarked) [WX005]
IC50 [2]: 0.19 µM

SMILES: CC1(C)C(=O)N(c2ccc(C#N)c(C(F)(F)F)c2)C(=S)N1c1ccc(OCCN2CCN(CC(=O)Nc3cccc4c3ccc3occ(C5CCC(=O)NC5=O)c34)CC2)c(F)c1 (centres unmarked) [WX009]
DC50 (androgen receptor AR): 0.0101 µM | Dmax (androgen receptor AR): 64.7%
